# Measurements published in US12391643B2, “Substituted amino-thiol and amino-disulfide compounds, and uses thereof” (The Regents of the University of California, priority 2019, dated 2025).
# Columns and labels:
# [1] = test system: C57BL/6 male mice on CDAHFD diet; assay: In vivo NASH model, treatment phase (8 weeks CDAHFD, then 2 weeks daily gavage); conditions: for Fatty deposits / fat globules in liver, H&E staining: 200 mg/kg/day
# Protocol: Liver Inflammatory Cells. CD11b stains macrophages and microglia. CD11b staining of liver tissue was taken after 10 weeks of CDAHFD in three groups of mice. […] At 8 weeks, treatment group 2 (“C2”) mice started gavage feeding with D2-Cystamine at 200 mg/kg/day once daily gavage, and treatment group 3 (“C3”) mice received D4-Cystamine at 200 mg/kg/day by once daily gavage.
# (§1) In vivo NASH Models. NASH models from normal C57BL/6 male mice on CDAHFD diet (choline deficient, L-amino acid defined, high fat diet with restricted amount of methionine) were used. Two deuterated cystamine molecules were tested:
# (§2) Two phase study was performed: (1) A prevention and (2) a treatment phase. 48 Mice were separated into nine groups of mice as described below. Histology at end of each study was performed looking for specific features of NASH (steatohepatitis, ballooning, fibrosis). The primary endpoint was plasma ALT measurement. Gene expression studies for fibrosis, inflammation were also performed.
# (§3) Prevention Phase. Group 1: Control mice on CDAHFD for 8 weeks. Blood drawn at 0, 4, and 8 weeks. Group 2: Mice on CDAHFD plus D2 at 200 mg/kg/day for 8 weeks. Blood drawn at 0, 4, and 8 weeks. Group 3: Mice on CDAHFD plus D4 at 200 mg/kg/day for 8 weeks. Blood drawn at 0, 4, and 8 weeks. Group 4: Control mice (n=4) continue on CDAHFD for 2 weeks. Blood at baseline and at 2 weeks. Liver histology at 2 weeks. Group 5: Mice (n=4) on CDAHFD for 2 weeks plus D2 at 200 mg/kg/day administered via daily gavage. Blood at 0 and 2 weeks and histology at 2 weeks. Group 6: Mice (n=4) on CDAHFD for 2 weeks plus D4 at 200 mg/kg/day administered via daily gavage. Blood at 0 and 2 weeks and histology at 2 weeks.
# Treatment Study Results. Groups 4, 5 and 6 mice received 8 weeks of CDAHDF diet before beginning treatment with deuterated compounds of the disclosure. During the treatment phase the mice continued to receive CDAHDF diet. Four mice were set in each group: control (C1) not receiving any drug; treatment (C2) receiving 200 mg/kg of cystamine D2 by once daily gavage; and treatment (C3) receiving 200 mg/kg cystamine D4 by once daily gavage.
# Pooled human hepatocytes = assay: Hepatocyte elimination (in vitro metabolic stability, percent parent remaining by LC/MS/MS); format: in vitro ADME; conditions: compared with other forms
# Source text: In vitro experiments with isotopically enriched cystamine and cysteamine in hepatocytes.
# The assessment of in vitro metabolic stability provides a means to measure the susceptibility of a test compound to biotransformation by the liver. While liver microsomes primarily assess cytochrome P450 system-mediated metabolism (phase I metabolism), hepatocytes represent a complete, undisrupted metabolic system, including cofactors, and thus assess both phase I and phase II metabolism. In all cases, the metabolic stability of test compounds was determined by monitoring, via LC/MS/MS, the percent parent compound remaining versus time of incubation in human hepatocytes.
# Pooled human hepatocytes (catalog number HMCS10, ThermoFischer Scientific) were thawed according to the manufacturers instructions. Thawed hepatocytes were washed by centrifugation and replated in Williams' Medium E supplemented with Heptocyte Plating Supplement Pack, Serum-containing.
# Cells were diluted to 1,000,000 per ml in maintenance media (Williams' E Media supplemented with Hepatocyte Maintenance Supplement Pack, Serum-free). 500 μl of cell suspension was added to each well of a microtiter plate containing 500 μl of the deuterated test agent and placed on an orbital shaker at 120 rpm at 37 C. At the appropriate time point 50 μl aliquots were removed from the well and added to 50 μl of ice cold ethyl acetate and vortexed for 5 min and froze until chromatography analysis.
# cystinotic fibroblasts = assay: Cystine depletion during constant drug exposure in cystinotic fibroblasts; format: cell-based, human; conditions: 100 uM constant exposure, 0-5 h; vs cystamine
# Protocol: In vitro experiments with isotopically enriched cystamine in cystinotic fibroblasts. Fibroblasts from a de-identified cystinotic patient were split 3× from 2 plates into 36 plates. Three different drugs were used for the experiments: cystamine (non-labeled), d2-cystamine, and d4-cystamine. There were two time series for each drug. The first was with constant drug incubation and included: 0, 10 min, 30 min, 1 h, 3 h, and 5 h. The other series included a washout after 3 h drug incubation, using fresh media following a PBS wash, and included the timepoints: 0, 30 min, 1 h, 3 h, 5 h, and 17 h. A direct quench and extraction technique were used for harvesting all cells to minimize further oxidation and metabolism. This included 2× washes with PBS that included 5 mM N-ethylmaleimide for trapping free thiol groups, and then scraping the plates with an acidified organic solvent extraction solution containing both d4-cystine and d4-cysteamine (plus d-8 cystamine) as internal standards. All samples were run on an API 4500 triple quadrupole LC-MS/MS, with selective reaction monitoring (SRM/MRM) for the following compounds of interest: cystine, NEM-cysteamine, NEM-cysteine, cystamine, and 2-(methylthio)ethylamine. All data fit well to single exponential curves (either decay or association), except where mentioned.
# Following incubation, cells were washed 2× in PBS containing N-ethylmaleimide.
# Fibroblasts from a de-identified cystinotic patient were split 3× from 2 plates into 18 plates. Two different drugs were used for the experiments: D4n-cystamine, and D8-cystamine. There were two time series for each drug. The first was with constant drug incubation and included: 0, 15 min, 30 min, 1 hr, and 3 hr. The other series included a washout after 3 hours of drug incubation, using fresh media following a PBS wash, and included the time-points: 0, 1 hr, 3 hr, and 16 hr. A direct quench and extraction technique was used for harvesting all cells to minimize further oxidation and metabolism. […] All samples were run on an API 4500 triple quadruple LC-MS/MS, with selective reaction monitoring (SRM/MRM) for the following compounds of interest: cystine, NEM-cysteamine, NEM-cysteine, and cystamine. All data fit well to single exponential curves (either decay or association), except where mentioned.
# [2] = test system: C57BL/6 male mice on CDAHFD diet; assay: In vivo NASH model, prevention phase (drug in drinking water, 8 weeks); conditions: about 200 mg/kg/day in drinking water, n=8 per group
# Protocol: as §1, §2
# Drug (D2 or D4) was administered in drinking water at a concentration to deliver animals about 200 mg/kg/day of drug. Daily weight. Volume of fluid drunk/day was also measured.
# as §3, with “Group 6: Mice (n=4) on CDAHFD for 2 weeks plus D4 at 200 mg/kg/day administered via daily gavage. Blood at 0 and 2 weeks and histology at 2 weeks.” left out
# [3] = 200 mg/kg once daily gavage, 2 weeks
smiles,measurement,setting,value
"[2H]C([2H])(CN)SSC([2H])([2H])CN [D4-Cystamine, 2,2′-disulfanediylbis(ethan-2,2-d2-1-aminium) chloride]",ALT versus untreated control group,[1]; [3],significantly lower
same,Ratio of body weight to liver weight (BW/LW) at end of study versus control,[1]; [3],statistically significant
same,"Hepatic fibrosis, Sirius Red staining of liver sections","[1]; 200 mg/kg once daily gavage, 2 weeks, listed as D4",significant reduction in the amount of positive liver staining
same,"Hepatic fibrosis, Sirius Red staining of liver sections","[1]; 200 mg/kg once daily gavage, 2 weeks, listed as cystamine D4",very significant reduction in hepatic fibrosis
same,Number of CD11b positive cells in liver tissue versus control group,"[1]; 200 mg/kg/day once daily gavage, 2 weeks",statistically significant reduction
same,"Fatty deposits / fat globules in liver, H&E staining",[1]; 2 weeks,reduction in fatty globules
same,"Fatty deposits / fat globules in liver, H&E staining","[1]; 2 weeks, listed as D4",reduced fatty deposits compared to control
same,Pericentral fibrosis in liver,"[1]; Sirius Red staining, 2 weeks",less pericentral fibrosis
same,"Collagen 1 expression, qPCR, versus control","[1]; liver, 2 weeks of treatment",significant reduction
same,"Rate of hepatocyte elimination / stability, comparison in words",Pooled human hepatocytes,most stable of the dimeric compounds
same,"Rate of hepatocyte elimination / stability, comparison in words",Pooled human hepatocytes; listed as D4 cystamine,slower rate than D2 or non-deuterated cystamine
same,"Rate of intracellular cystine depletion, comparison in words",cystinotic fibroblasts,nearly identical
same,ALT levels at 8 weeks versus control group,[2],not between the control group and D4
